Tests used:
[1] = Cell Proliferation Assay (BrdU incorporation); format: cell-based; details: Homo sapiens; 48 h incubation, BrdU labeling; cell line not specified; read-out: inhibited cell proliferation IC50
Procedure: Cell proliferation was measured using a calorimetric immunoassay (B/M Roche #164 7229), based on the measurement of pyrimidine analog BrdU incorporation during DNA synthesis in proliferating cells. Cells, e.g., human PC-3 prostate carconima cells, huFSF normal human foreskin fibroblast cells, HCT 116 human colon carcinoma cells or HT 29 human colon carcinoma cells, were cultured in a 96-well plate for 24 h, until a cell count of 3×10^3 to 6×10^3 cells per well in duplicate wells were achieved, in a well volume of 200 μl. The media was changed and 1 μl of 200× control inhibitors or compounds was added to each well. Cells are incubated for 48 h at 37° C. The cells were labeled with BrdU for 4 h at 37° C. The labeling medium was removed and in one step, the cells were fixed and the DNA was denatured (30 min at RT). Anti-BrdU-POD antibody was added to bind to the BrdU incorporated in newly synthesized cellular DNA (60–90 min at RT). The cells were washed 3×with washing buffer, substrate (100 μl) was added and the cells were incubated for 10 min at RT. The substrate reaction was stopped by adding 25 μl of 1M H2SO4. The amount of BrdU incorporated was quantified by measuring the absorbance at 450 nm using ELISA reader. IC50's were calculated using GraFit (Sigma).

O=C1Nc2cc(-c3cccc(O)c3)ccc2CN1c1csc(-c2ccncc2)n1 [Example 31, 7-(3-Hydroxyphenyl)-3-(2-(4-pyridyl) (1,3-thiazol-4-yl))-1,3,4-trihydroquinazolin-2-one]
melting point: 320 to 322 °C
IC50 [1]: < 5 µM

O=C1Nc2cccc(-c3ccccc3)c2CN1c1csc(-c2ccncc2)n1 [Example 34, 5-Phenyl-3-(2-(4-pyridyl)(1,3-thiazol-4-yl))-1,3,4-trihydroquinazolin-2-one]
IC50 [1]: < 5 µM

O=C1Nc2cccc(CN3CCCCC3)c2CN1c1csc(-c2ccncc2)n1 [Example 15, 5-(Piperidylmethyl)-3-(2-(4-pyridyl)(1,3-thiazol-4-yl))-1,3,4-trihydroquinazolin-2-one]
IC50 [1]: < 5 µM

O=C1Nc2cc(-c3cccc(OCCN4CCCCC4)c3)ccc2CN1c1csc(-c2ccncc2)n1 [Example 32, 7-[3-(2-Piperidylethoxy)phenyl]-3-(2-(4-pyridyl)(1,3-thiazol-4-yl))-1,3,4-trihydroquinazolin-2-one]
melting point: 206 to 208 °C
IC50 [1]: < 5 µM

COC(=O)c1cccc2c1CN(c1csc(-c3ccncc3)n1)C(=O)N2 [Example 2, Methyl 2-oxo-3-(2-(4-pyridyl)(1,3-thiazol-4-yl))-1,3,4-trihydroquinazoline-5-carboxylate]
IC50 [1]: < 5 µM

Source: patent publication US7119111B2, “2-oxo-1,3,4-trihydroquinazolinyl derivatives and methods of use” (Amgen, Inc., priority 2002, dated 2006)
